From patent US7807877B2, “Genetic sequences having methyltransferase activity and uses therefor” (International Flower Developments Pty. Ltd., priority 2002, dated 2010)
Several values for one entry are separate records, joined by “and”; a condition that tells them apart may be missing. Equal values may be shown once.

Experiments:
Torenia FMT (TFMT) [1] = test: Methyltransferase assay (14C-SAM, TLC) of crude homogenate of E. coli containing pCGP3090; type: biochemical, Torenia hybrida; parameters: key to Petunidin (product on TLC) / Malvidin (product on TLC): yes = detection of product on TLC; no = no reaction observed as determined by absence of product
Description: (§1) The assay reactions were incubated at 30° C. for 30 minutes. Fifty microlitres of a chloroform mix (CHCl3:methanol/1% HCl, 2:1) was added and the mixture was then vortexed to stop the reactions. The phases were separated by centrifugation at 13,000 rpm for 5 minutes and 50 μL of the upper phase was transferred into a clean tube and the contents subsequently hydrolysed by the addition of 12.5 μL of 10M HCl. The tube was then placed in a boiling waterbath for 30 minutes and the contents subsequently desiccated under vacuum. The residue was resuspended in 2-3 μL of methanol/1% HCl and spotted onto a TLC plate alongside standard samples of petunidin, malvidin and delphinidin. The anthocyanidins were separated in a Forestal system (HOAc:water:HCl; 30:10:3) (Markham, Techniques of flavonoid identification, Academic Press, London, 1982) and the TLC was exposed to an autoradiographic film (Kodak) for 16 hours at −70° C.
The confirmation of recombinant protein expression and preparation of crude protein extracts and subsequent determination of methyltransferase activity were as described for the analysis of the Petunia E20 cDNA clone (PFMT) (described above in Example 7).
The enzyme activities of the protein encoded by the Torenia FMT cDNA clone in pCGP3090 along with that of the Petunia FMT (E20) clone in pCGP3086 were assessed using the substrates delphinidin 3-glucoside and delphinidin 3-rutinoside under assay conditions as described in Jonsson et al. (1983), supra and in Example 7 of this specification.
Methyltransferase assays were set up according to Table 15 in a total reaction volume of 50 μL.
Reaction conditions were as described previously (Example 7).

Petunia FMT (E20) [2] = test: HPLC assay of methyltransferase activity, E. coli extract containing pCGP3086; type: biochemical, Petunia hybrida
Description: as §1
(§2) Anthocyanidins in the reaction mixture were analysed by HPLC via gradient elution using gradient conditions of 50% B to 60% B over 10 minutes, then 60% B for 10 minutes and finally 60% B to 100% B over 5 minutes where solvent A consisted of TFA:H2O (5:995) and solvent B consisted of acetonitrile:TFA:H2O (500:5:495). An Asahi Pac ODP-50 cartridge column (250 mm×4.6 mm ID) was used for the reversed phase chromatographic separations. […].
(§3) The enzyme activities of the peptides encoded by Petunia and Torenia FMT cDNA clones in pCGP3086 and pCGP3090, respectively were further assessed using the substrates delphinidin 3-glucoside and delphinidin 3-rutinoside and delphinidin 3,5-diglucoside under assay conditions as previously described (Table 15, Example 9) except that the ^14C-labelled SAM was replaced with non radioactive SAM at 2 mg/mL and the substrates (delphinidin 3-glucoside and delphinidin 3-rutinoside and delphinidin 3,5-diglucoside) at 2 mg/mL.

Petunia FMT (E20) [3] = test: Methyltransferase assay (14C-SAM, TLC) of crude homogenate of E. coli containing pCGP3086; type: biochemical, Petunia hybrida; parameters: key to Petunidin (product on TLC) / Malvidin (product on TLC): yes = detection of product on TLC; no = no reaction observed as determined by absence of product
Description: 10 mLs of LB containing ampicillin at 100 μg/mL and kanamycin at 25 μg/mL. (LB/Amp100+Kan25) were inoculated with a single colony of pCGP3086 or pQE30 in M15 (pREP4) cells. […] IPTG was then added to a final concentration of 1 mM and the culture was further incubated at 30° C. with shaking for 8 hours. The cells were pelleted by centrifugation at 3500 rpm for 10 minutes at 4° C. The pellet was resuspended in 1 mL of 0.1 M NaPi, pH 7.5, 4 mM MgCl2. […] The mixture was then sonicated for two bursts of 10 seconds at output 2-3 and then incubated on ice for 30 minutes. The cell debris was pelleted by centrifugation at 14,000 rpm for 20 minutes at 4° C. The supernatant was passed through a NAP-10 column (Pharmacia) and 1.5 mL of the sample collected in 0.1 M NaPi, pH 7.5, 4 mM MgCl2. […] (1983), supra. Methyltransferase assays were set up according to Table 10 in a total reaction volume of 50 μL. […] The assay reactions were incubated at 30° C. for 30 minutes. Fifty microlitres of a chloroform mix (CHCl3:methanol/1% HCl, 2:1) was added and the mixture was then vortexed to stop the reactions. […] The tube was then placed in a boiling waterbath for 30 minutes and the contents subsequently desiccated under vacuum.

[4] = Reconstruction experiments: anthocyanins added to petal juice of Medeo roses; type: physicochemical, Rosa hybrida; conditions: pH 4.9
Description: The rose cultivar Medeo generally produces cream-colored to pale apricot flowers (RHSCC 158C to 159A). […] The estimated vacuolar pH of Medeo petals is around 4.6. The petal juice of Medeo roses was extracted by grinding one petal with 50 μL of water using a mortar and pestle. The petal juice was collected and mixed with 10-20 μL of 1-2 mg/g delphinidin 3-glucoside, delphinidin 3,5-diglucoside and malvidin 3,5-diglucoside. The colors observed were described according to the Royal Horticultural Society Color Charts (RHSCC) (The Royal Horticultural Society, London) (Table 8).

Torenia FMT (TFMT) [5] = test: HPLC assay of methyltransferase activity, E. coli extract containing pCGP3090; type: biochemical, Torenia hybrida
Description: as §1, §2, §3

[6] = pCGP3090 crude homogenate + 14C-SAM (Table 16)
[7] = pCGP3086 (PFMT), percentage of total anthocyanidins, duplicate a/b
[8] = pCGP3086, substrate 2 mg/mL, SAM 2 mg/mL, duplicate a/b
[9] = pCGP3086 crude homogenate + 14C-SAM (Table 16, positive control)
[10] = pCGP3086 crude homogenate + 14C-SAM, 30° C., 30 minutes (Table 11)
[11] = pCGP3090 (TFMT), percentage of total anthocyanidins, duplicate a/b
[12] = pCGP3090, substrate 2 mg/mL, SAM 2 mg/mL, duplicate a/b

Q: Which “Petunidin and malvidin, the methylated derivatives of delphinidin, in assay reactions” value (Torenia FMT (TFMT) [1]; crude homogenates from pCGP3090 (containing TFMT), 14C-SAM) does the source give for `OC[C@H]1O[C@@H](Oc2cc3c(O)cc(O)cc3[o+]c2-c2cc(O)c(O)c(O)c2)[C@H](O)[C@@H](O)[C@@H]1O` [D3G, delphinidin 3-glucoside] here?
A: detected

Q: What about the “Malvidin (product on TLC)” value (Torenia FMT (TFMT) [1]; [6]) of the same molecule?
A: yes

Q: And the “Petunidin (product on TLC)” value (Torenia FMT (TFMT) [1]; [6])?
A: yes

Q: What about the “product of flavonoid methyltransferase activity with the substrate” value (Petunia FMT (E20) [2]; Petunia FMT (E20) in pCGP3086, to a lesser degree malvidin) of the same molecule?
A: predominantly petunidin

Q: And the “Predominant FMT Activity” value (Petunia FMT (E20) [2]; pCGP3086)?
A: 3′FMT

Q: And the “% of anthocyanidin detected cya” value (Petunia FMT (E20) [2]; [7])?
A: 11.8% and 9.7%

Q: And the “% of anthocyanidin detected del” value (Petunia FMT (E20) [2]; [7])?
A: 35.5% and 31.4%

Q: What about the “% of anthocyanidin detected mal” value (Petunia FMT (E20) [2]; [7]) of the same molecule?
A: 6.0% and 6.5%

Q: And the “% of anthocyanidin detected peo” value (Petunia FMT (E20) [2]; [7])?
A: 2.7% and 3.0%

Q: And the “% of anthocyanidin detected pet” value (Petunia FMT (E20) [2]; [7])?
A: 44.0% and 49.4%

Q: And the “Anthocyanidins (mg/g) Cya” value (Petunia FMT (E20) [2]; [8])?
A: 2.4 mg/g and 2.0 mg/g

Q: And the “Anthocyanidins (mg/g) Del” value (Petunia FMT (E20) [2]; [8])?
A: 7.1 mg/g and 6.4 mg/g

Q: What about the “Anthocyanidins (mg/g) Mal” value (Petunia FMT (E20) [2]; [8]) of the same molecule?
A: 1.2 mg/g and 1.3 mg/g

Q: And the “Anthocyanidins (mg/g) Peo” value (Petunia FMT (E20) [2]; [8])?
A: 0.5 mg/g and 0.6 mg/g

Q: And the “Anthocyanidins (mg/g) Pet” value (Petunia FMT (E20) [2]; [8])?
A: 8.8 mg/g and 10.0 mg/g

Q: And the “Petunidin and malvidin, the methylated derivatives of delphinidin, in assay reactions” value (Petunia FMT (E20) [3]; crude homogenates from pCGP3086 cells, 14C-SAM)?
A: detected

Q: And the “Malvidin (product on TLC)” value (Petunia FMT (E20) [3]; [9])?
A: yes

Q: And the “Petunidin (product on TLC)” value (Petunia FMT (E20) [3]; [9])?
A: yes

Q: What about the “Malvidin (product on TLC)” value (Petunia FMT (E20) [3]; [10]) of the same molecule?
A: yes

Q: What about the “Petunidin (product on TLC)” value (Petunia FMT (E20) [3]; [10]) of the same molecule?
A: yes

Q: And the COLOR [4]?
A: red-purple

Q: What about the “RHSCC#” value [4] of the same molecule?
A: 74A

Q: And the “product of flavonoid methyltransferase activity with the substrate” value (Torenia FMT (TFMT) [5]; Torenia FMT in pCGP3090, to a lesser degree petunidin)?
A: predominantly malvidin

Q: And the “Predominant FMT Activity” value (Torenia FMT (TFMT) [5]; pCGP3090)?
A: 3′5′FMT

Q: And the “% of anthocyanidin detected cya” value (Torenia FMT (TFMT) [5]; [11])?
A: 4.5% and 3.6%

Q: And the “% of anthocyanidin detected del” value (Torenia FMT (TFMT) [5]; [11])?
A: 7.8%

Q: What about the “% of anthocyanidin detected mal” value (Torenia FMT (TFMT) [5]; [11]) of the same molecule?
A: 74.0% and 75.2%

Q: What about the “% of anthocyanidin detected peo” value (Torenia FMT (TFMT) [5]; [11]) of the same molecule?
A: 8.5% and 8.0%

Q: And the “% of anthocyanidin detected pet” value (Torenia FMT (TFMT) [5]; [11])?
A: 5.1% and 5.4%

Q: What about the “Anthocyanidins (mg/g) Cya” value (Torenia FMT (TFMT) [5]; [12]) of the same molecule?
A: 1.0 mg/g and 0.9 mg/g

Q: What about the “Anthocyanidins (mg/g) Del” value (Torenia FMT (TFMT) [5]; [12]) of the same molecule?
A: 1.8 mg/g and 1.9 mg/g

Q: And the “Anthocyanidins (mg/g) Mal” value (Torenia FMT (TFMT) [5]; [12])?
A: 17.1 mg/g and 18.1 mg/g

Q: And the “Anthocyanidins (mg/g) Peo” value (Torenia FMT (TFMT) [5]; [12])?
A: 2.0 mg/g and 1.9 mg/g

Q: What about the “Anthocyanidins (mg/g) Pet” value (Torenia FMT (TFMT) [5]; [12]) of the same molecule?
A: 1.2 mg/g and 1.3 mg/g
